Columns and labels:
[1] = tested on: MDA-MB-231 breast cancer cells; assay: MTT cytotoxicity assay, MDA-MB-231; assay type: cell-based; details: MDA-MB-231, MTT; for IC50 / viability at 0.312 µM / viability at 0.625 µM / viability at 1.25 µM / viability at 2.5 µM / viability at 5 µM / viability at 10 µM: Homo sapiens; for IC50: mean of three independent experiments ± SD, read-out: IC50 Value MDA-MB-231
Experimental: (§1) All newly synthetic compounds were tested for cytotoxicity using a six-dose MTT colorimetric assay on three cancer cell lines; namely, breast cancer cells (MDA-MB-231), colorectal adenocarcinoma cells (HT-29) and renal cancer cells (U-937). […] However, renal cancer cells (U-937) were discovered to be the least sensitive.
(§2) Using a six-dose MTT colorimetric assay, all new synthetic compounds were tested for cytotoxicity against three cancer cell lines: MDA-MB-231 breast cancer cells, HT-29 colorectal adenocarcinoma cells, and U-937 renal cancer cells. […] These cell lines were supplied by ATCC (American Type Culture Collection) via the Holding company for biological products and vaccines (VACSERA, Cairo, Egypt). The reference control used was Methotrexate. Detailed descriptions of the MTT colorimetric assay’s protocol can be found in the Supplementary file.
(§3) 1.1.In-vitro cytotoxicity screening
(§4) Using a six-dose MTT colorimetric assay, allnew synthetic compounds were tested for cytotoxicity against three cancer cell lines: MDA-MB-231 breast cancer cells,HT-29 colorectal adenocarcinoma cells, and U-937 renal […]
(§5) The cell lines were supplied by ATCC (American Type Culture Collection). The reference control used was Methotrexate. The cytotoxic activities of the examined compounds were quantified by inoculating a 96-well tissue culture plate with 1 X 10^5 cells / mL (100 uL/well) and incubating it at 37°C for 24 hours to develop a complete monolayer sheet. After forming a confluent sheet of cells, the growth medium was decanted from 96-well microtiter plates, and the cell monolayer was washed twice with wash media. Two-fold dilutions of tested samples were made in RPMI medium with 2% serum (maintenance medium), and 0.1 mL of each dilution was tested in different wells, with three wells serving as controls and receiving only maintenance medium. Following that, the plate was incubated at 37°C and examined. Cells were investigated for any physical signs of toxicity, such as partial or complete monolayer loss, rounding, shrinkage, or cell granulation. MTT solution was prepared (5mg/ml in PBS) (BIO BASIC CANADA INC), and 20 uL MTT solution was added to each well. After 5 minutes on a shaking table at150 rpm to thoroughly mix the MTT into the media, it was incubated (37°C, 5% CO2) for 4 hours to allow the MTT to be metabolized. Formazan (MTT metabolic product) was resuspended in 200 uL DMSO and shaken at 150 rpm for 5 minutes to thoroughly mix the formazan into the solvent. The optical density was measured at 560 nm, and the background was subtracted at 620 nm. Finally, the IC50 of the test compound in comparison to the reference was calculated using the GraphPad Prism software. […]

[2] = tested on: HT-29 colorectal adenocarcinoma cells; assay: MTT cytotoxicity assay, HT-29; assay type: cell-based; details: MTT; for Toxicity % / viability at 0.312 µM / viability at 0.625 µM / viability at 1.25 µM / viability at 2.5 µM / viability at 5 µM / viability at 10 µM: HT29; for viability at 0.312 µM / viability at 0.625 µM / viability at 1.25 µM / viability at 2.5 µM / viability at 5 µM / viability at 10 µM / IC50: Homo sapiens, HT-29; for IC50: mean of three independent experiments ± SD, read-out: IC50 Value HT-29
Experimental: as §1, §2, §3, §4, §5

[3] = MTT cytotoxicity assay, U-937; assay type: cell-based; details: Homo sapiens, U-937, U937, MTT;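 note: Six-dose MTT colorimetric assay on cell monolayers, formazan absorbance read at 560 nm with 620 nm background removed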
Experimental: (§6) Using a six-dose MTT colorimetric assay [44, 66], all new synthetic compounds were tested for cytotoxicity against three cancer cell lines: MDA-MB-231 breast cancer cells, HT-29 colorectal adenocarcinoma cells, and U-937 renal cancer cells. […] These cell lines were supplied by ATCC (American Type Culture Collection) via the Holding company for biological products and vaccines (VACSERA, Cairo, Egypt). The reference control used was Methotrexate.
(§7) Using a six-dose MTT colorimetric assay [44, 66], allnew synthetic compounds were tested for cytotoxicity against three cancer cell lines: MDA-MB-231 breast cancer cells,HT-29 colorectal adenocarcinoma cells, and U-937 renal
(§8) The cell lines were supplied by ATCC (American Type Culture Collection). The reference control used was Methotrexate. The cytotoxic activities of the examined compounds were quantified by inoculating a 96-well tissue culture plate with 1 X 10^5 cells / mL (100 uL/well) and incubating it at 37°C for 24 hours to develop a complete monolayer sheet. After forming a confluent sheet of cells, the growth medium was decanted from 96-well microtiter plates, and the cell monolayer was washed twice with wash media. Two-fold dilutions of tested samples were made in RPMI medium with 2% serum (maintenance medium), and 0.1 mL of each dilution was tested in different wells, with three wells serving as controls and receiving only maintenance medium. Following that, the plate was incubated at 37°C and examined. Cells were investigated for any physical signs of toxicity, such as partial or complete monolayer loss, rounding, shrinkage, or cell granulation. MTT solution was prepared (5mg/ml in PBS) (BIO BASIC CANADA INC), and 20 uL MTT solution was added to each well. After 5 minutes on a shaking table at150 rpm to thoroughly mix the MTT into the media, it was incubated (37C, 5% CO2) for 4 hours to allow the MTT to be metabolized. Formazan (MTT metabolic product) was resuspended in 200 uL DMSO and shaken at 150 rpm for 5 minutes to thoroughly mix the formazan into the solvent. The optical density was measured at 560 nm, and the background was subtracted at 620 nm. Finally, the IC50 of the test compound in comparison to the reference was calculated using the GraphPad Prism software.

U-937 renal cancer cells = assay: MTT cytotoxicity assay, U-937; assay type: cell-based; details: MTT; for IC50: Homo sapiens, U-937, mean of three independent experiments ± SD, read-out: IC50 Value U-937; for Toxicity %: U937;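 for all read-outs here: Six-dose MTT colorimetric assay on cell monolayers, formazan absorbance read at 560 nm with 620 nm background removed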
Experimental: as §6, §7, §8

BRD4 (BD2) = biological target: T1, BRD4 (BD2) (Homo sapiens, UniProt O60885); assay: BRD4 inhibitory activity assay (AlphaLISA Bromodomain Assay); assay type: binding; details: mean of three independent experiments; read-out: BRD4 IC50 ± SD;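 note: in vitro inhibition of recombinant BRD4 BD2 bromodomain binding to a BET bromodomain ligand, read by AlphaLISA proximity signal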
T1 construct: BRD4 (BD2) should be thawed on ice; purchased
Experimental: The BRD4 and PLK1 inhibitory assays were carried out in vitro in accordance with the manufacturer’s instructions; BRD4 was assessed using AlphaLISA Bromodomain Assay Protocol [67], and PLK1 kinase was tested using the ADP-Glo™ Kinase Assay Protocol [68], as detailed in the Supplementary file.
The BRD4 and PLK1 inhibitory assays were carried out in vitro in accordance with the manufacturer's instructions; BRD4 was assessed using AlphaLISA Bromodomain Assay Protocol [67], and PLK1 kinase was tested using the ADP-Glo™ Kinase Assay Protocol [68],
The master mixture was prepared as follows: N wells × (2.5 µL 3x BRD Homogeneous Assay Buffer 1 + 1 µL BET Bromodomain Ligand + 1.5 µL H2O). BRD4 (BD2) should be thawed on ice. Simply, the protein-containing tube was spined to recover the full content of the tube after the firstthaw. Both proteins should be aliquoted into single-use aliquots. Immediately, any remaining undiluted protein should be stored in aliquots at -80°C. BRD4 (BD2) was diluted in 1x BRD Homogeneous Assay Buffer 1 at 4 ng/µL. The diluted proteins were kept on ice until they were used. 5 µl of the master mixture is added to each well designated for the “Positive Control”, “Test Inhibitor”, and “Blank”. For the “Substrate Control”, 2.5 µL 3x BRD Homogeneous Assay Buffer 1 + 1 µL Non-acetylated Ligand 1 + 1.5 µL H2O is added. Each “Test Inhibitor” well received 2.5 µL of inhibitor solution, while the “Positive
Control”, “Substrate Control”, and “Blank” wells received 2.5 µL of the same solution without inhibitor (inhibitor buffer). Then, the “Blank” well is filled with 2.5 µL of 1x BRD Homogeneous Assay Buffer 1. After that, GSH
10 µL per well is added, the plate isshaken, and itis incubated at room temperature for 30 minutes. Streptavidin-
10 µL is added per well and incubated at room temperature for further 15 – 30 minutes [67]. The Alpha counts were read using the EnVision® multimode plate reader with the standard Alpha detection settings.

human recombinant PLK1 = human recombinant PLK1 (Homo sapiens, UniProt P53350); assay: PLK1 inhibitory activity assay (ADP-Glo Kinase Assay); assay type: biochemical; details: mean of three independent experiments; read-out: PLK1 IC50 ± SD
Experimental: The BRD4 and PLK1 inhibitory assays were carried out in vitro in accordance with the manufacturer’s instructions; BRD4 was assessed using AlphaLISA Bromodomain Assay Protocol, and PLK1 kinase was tested using the ADP-Glo™ Kinase Assay Protocol, as detailed in the Supplementary file. […]
1.2.2. PLK1 inhibitory activity assay
The kinase reaction was performed with active human recombinant PLK1 and combined with the substrate dephosphorylated casein (positive control) using 1 X reaction buffer (40 mM Tris-HCl pH 7.4, 20 mM MgCl2, 0.1 mg/mL BSA, 1 mM DTT) and 20 μM ATP. The reaction was incubated at30°C for 45 minutes. The amount of ATP transferred was calculated using […] reagent from Promega according to the manufacturer’s instruction.
A plate-reading luminometer isused to measure the luminescence. […]

Sequence of human recombinant PLK1 (P53350 whole entry): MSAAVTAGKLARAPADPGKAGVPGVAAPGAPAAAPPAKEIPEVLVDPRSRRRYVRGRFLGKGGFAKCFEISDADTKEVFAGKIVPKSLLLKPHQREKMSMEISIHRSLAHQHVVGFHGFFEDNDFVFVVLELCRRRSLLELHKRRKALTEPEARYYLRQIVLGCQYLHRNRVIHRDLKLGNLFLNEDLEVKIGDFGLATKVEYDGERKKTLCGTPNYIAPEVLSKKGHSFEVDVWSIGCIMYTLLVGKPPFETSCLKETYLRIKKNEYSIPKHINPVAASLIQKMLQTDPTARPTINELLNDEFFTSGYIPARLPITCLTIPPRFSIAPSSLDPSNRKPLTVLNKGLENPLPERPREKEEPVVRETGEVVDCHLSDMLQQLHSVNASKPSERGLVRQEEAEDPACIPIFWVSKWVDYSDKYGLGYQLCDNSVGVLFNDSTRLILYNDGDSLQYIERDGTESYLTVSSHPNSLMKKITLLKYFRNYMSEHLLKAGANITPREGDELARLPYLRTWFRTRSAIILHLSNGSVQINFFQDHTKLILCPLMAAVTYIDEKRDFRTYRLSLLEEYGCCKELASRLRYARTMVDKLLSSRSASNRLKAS

Q: Which results are given for COc1ccc(-c2cnc3c(n2)c(=O)[nH]c(=O)n3Cc2ccccc2)cc1 [Compound 9, 1-Benzyl-6-(4-methoxyphenyl)pteridine-2,4(1H,3H)-dione]?
A: IC50 [1]: 2.07 ± 0.03 µM; viability at 0.312 µM ([1]; 0.312 uM): 99.7%; viability at 0.625 µM ([1]; 0.625 uM): 99.2%; viability at 1.25 µM ([1]; 1.25 uM): 86.2%; viability at 2.5 µM ([1]; 2.5 uM): 33%; viability at 5 µM ([1]; 5 uM): 13.5%; viability at 10 µM ([1]; 10 uM): 5.45%; Toxicity % ([1]; 0.312 uM): 0.266%; Toxicity % ([1]; 0.625 uM): 0.7979%; Toxicity % ([1]; 1.25 uM): 13.79%; Toxicity % ([1]; 2.5 uM): 66.98%; Toxicity % ([1]; 5 uM): 86.48%; Toxicity % ([1]; 10 uM): 94.55%; Toxicity % ([2]; 0.312 uM): 0.2584%; Toxicity % ([2]; 0.625 uM): 0.08613%; Toxicity % ([2]; 1.25 uM): 0.08613%; Toxicity % ([2]; 2.5 uM): 12.36%; Toxicity % ([2]; 5 uM): 68.22%; Toxicity % ([2]; 10 uM): 88.67%; viability at 0.312 µM ([2]; 0.312 uM): 99.7%; viability at 0.625 µM ([2]; 0.625 uM): 99.9%; viability at 1.25 µM ([2]; 1.25 uM): 99.9%; viability at 2.5 µM ([2]; 2.5 uM): 87.6%; viability at 5 µM ([2]; 5 uM): 31.8%; viability at 10 µM ([2]; 10 uM): 11.3%; IC50 [2]: 4.11 ± 0.05 µM; viability at 0.312 µM [3]: 99.8%; viability at 0.625 µM [3]: 100%; viability at 1.25 µM [3]: 98.6%; viability at 2.5 µM [3]: 77%; viability at 5 µM [3]: 42%; viability at 10 µM [3]: 19.3%; IC50 (U-937 renal cancer cells): 4.42 ± 0.18 µM; Toxicity % (U-937 renal cancer cells; 0.312 uM): 0.2179%; Toxicity % (U-937 renal cancer cells; 0.625 uM): 0%; Toxicity % (U-937 renal cancer cells; 1.25 uM): 1.416%; Toxicity % (U-937 renal cancer cells; 2.5 uM): 23.04%; Toxicity % (U-937 renal cancer cells; 5 uM): 58.01%; Toxicity % (U-937 renal cancer cells; 10 uM): 80.66%; IC50 (BRD4 (BD2)): 0.179 ± 0.008 µM; IC50 (human recombinant PLK1): 0.041 ± 0.001 µM; melting point: > 300 °C

Q: With Cn1c(=S)[nH]c(=O)c2nc(-c3ccccc3)c(-c3ccccc3)nc21 [Compound 10, 1-Methyl-6,7-diphenyl-2-thioxo-2,3-dihydropteridin-4(1H)-one] as the molecule, how does the IC50 [1] read?
A: 3.4 ± 0.02 µM

Q: And the viability at 0.312 µM ([1]; 0.312 uM)?
A: 100%

Q: And the viability at 0.625 µM ([1]; 0.625 uM)?
A: 100%

Q: And the viability at 1.25 µM ([1]; 1.25 uM)?
A: 98.8%

Q: What about the viability at 2.5 µM ([1]; 2.5 uM) of the same molecule?
A: 54.3%

Q: And the viability at 5 µM ([1]; 5 uM)?
A: 26.3%

Q: What about the viability at 10 µM ([1]; 10 uM) of the same molecule?
A: 7.93%

Q: What about the Toxicity % ([1]; 0.312 uM) of the same molecule?
A: 0%

Q: What about the Toxicity % ([1]; 0.625 uM) of the same molecule?
A: 0%

Q: What about the Toxicity % ([1]; 1.25 uM) of the same molecule?
A: 1.197%

Q: And the Toxicity % ([1]; 2.5 uM)?
A: 45.66%

Q: What about the Toxicity % ([1]; 5 uM) of the same molecule?
A: 73.67%

Q: What about the Toxicity % ([1]; 10 uM) of the same molecule?
A: 92.07%

Q: What about the Toxicity % ([2]; 0.312 uM) of the same molecule?
A: 0%

Q: And the Toxicity % ([2]; 0.625 uM)?
A: 0%

Q: What about the Toxicity % ([2]; 1.25 uM) of the same molecule?
A: 2.239%

Q: And the Toxicity % ([2]; 2.5 uM)?
A: 18.99%

Q: What about the Toxicity % ([2]; 5 uM) of the same molecule?
A: 41.09%

Q: What about the Toxicity % ([2]; 10 uM) of the same molecule?
A: 96.3%

Q: What about the viability at 0.312 µM ([2]; 0.312 uM) of the same molecule?
A: 100%

Q: What about the viability at 0.625 µM ([2]; 0.625 uM) of the same molecule?
A: 100%

Q: What about the viability at 1.25 µM ([2]; 1.25 uM) of the same molecule?
A: 97.8%

Q: And the viability at 2.5 µM ([2]; 2.5 uM)?
A: 81%

Q: And the viability at 5 µM ([2]; 5 uM)?
A: 58.9%

Q: What about the viability at 10 µM ([2]; 10 uM) of the same molecule?
A: 3.7%

Q: What about the IC50 [2] of the same molecule?
A: 5.63 ± 0.13 µM

Q: What about the viability at 0.312 µM [3] of the same molecule?
A: 99.5%

Q: What about the viability at 0.625 µM [3] of the same molecule?
A: 99.8%

Q: And the viability at 1.25 µM [3]?
A: 99.9%

Q: And the viability at 2.5 µM [3]?
A: 95.8%

Q: What about the viability at 5 µM [3] of the same molecule?
A: 85%

Q: And the viability at 10 µM [3]?
A: 34.9%

Q: What about the IC50 (U-937 renal cancer cells) of the same molecule?
A: 8.37 ± 0.23 µM

Q: What about the Toxicity % (U-937 renal cancer cells; 0.312 uM) of the same molecule?
A: 0.5447%

Q: What about the Toxicity % (U-937 renal cancer cells; 0.625 uM) of the same molecule?
A: 0.1634%

Q: What about the Toxicity % (U-937 renal cancer cells; 1.25 uM) of the same molecule?
A: 0.05447%

Q: What about the Toxicity % (U-937 renal cancer cells; 2.5 uM) of the same molecule?
A: 4.248%

Q: What about the Toxicity % (U-937 renal cancer cells; 5 uM) of the same molecule?
A: 15.03%

Q: And the Toxicity % (U-937 renal cancer cells; 10 uM)?
A: 65.14%

Q: And the melting point?
A: 287 °C
